For this experiment, the target named is T1, ZAP-70 (Homo sapiens, UniProt P43403).
T1 sequence (P43403 1-619): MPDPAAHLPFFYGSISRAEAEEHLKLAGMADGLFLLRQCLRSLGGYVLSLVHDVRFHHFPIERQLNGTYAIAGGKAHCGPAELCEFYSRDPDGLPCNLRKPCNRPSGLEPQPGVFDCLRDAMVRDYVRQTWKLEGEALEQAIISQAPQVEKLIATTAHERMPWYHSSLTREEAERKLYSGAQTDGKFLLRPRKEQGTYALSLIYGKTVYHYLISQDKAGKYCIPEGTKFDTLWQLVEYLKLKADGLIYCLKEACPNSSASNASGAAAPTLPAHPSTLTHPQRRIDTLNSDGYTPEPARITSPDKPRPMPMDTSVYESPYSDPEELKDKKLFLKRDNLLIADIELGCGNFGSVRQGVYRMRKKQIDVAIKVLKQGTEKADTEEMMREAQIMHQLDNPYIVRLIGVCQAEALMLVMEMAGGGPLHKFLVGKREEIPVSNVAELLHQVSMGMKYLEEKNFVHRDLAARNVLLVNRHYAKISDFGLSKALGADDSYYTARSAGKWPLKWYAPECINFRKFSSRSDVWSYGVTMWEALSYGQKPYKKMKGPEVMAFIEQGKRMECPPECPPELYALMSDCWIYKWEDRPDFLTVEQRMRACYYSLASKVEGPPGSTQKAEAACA
The experiment in a line: DELFIA assay (ZAP-70 kinase, phosphorylation of biotinylated poly(glu,tyr)). As to conditions: ZAP-70 DELFIA, class symbols; read-out: Activity (IC50 in vitro). The format is biochemical. The gist of the method:
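3.1 nM ZAP-70 pre-incubated 10 min at room temperature with compound ([…]) and 62.5 nM biotinylated poly(glu,tyr) in 62.5 mM Mops pH 7.0, 12.5 mM MgCl2, 12.5% glycerol, 6.25% DMSO (pre-incubation concentrations); ATP added from 5 mM stock, 30 min reaction, EDTA stop. Phosphorylation read by DELFIA europium anti-phosphotyrosine fluorescence (340/615).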

For `Cc1ccc(CNc2cc(C(=O)N3CCC[C@H]3CN3CCCC3)c3cc(-c4ccc(C#N)cc4)ccc3n2)c(C)c1` [Compound 224], the IC50 was > 10 µM.
For `Cc1cc(CNc2cc(C(=O)N3CCC[C@H]3CN3CCCC3)c3cc(-c4ccc(C#N)cc4)ccc3n2)ccc1F` [Compound 225], the IC50 was > 10 µM.
As for `Cc1ccc(F)cc1CNc1cc(C(=O)N2CCC[C@H]2CN2CCCC2)c2cc(-c3ccc(C#N)cc3)ccc2n1` [Compound 226], the IC50 was > 10 µM.
As for `Cc1ccc(CNc2cc(C(=O)N3CCC[C@H]3CN3CCCC3)c3cc(-c4ccc(C#N)cc4)ccc3n2)cc1F` [Compound 227], the figure is > 10 µM; as for `CSc1ccccc1CNc1cc(C(=O)N2CCC[C@H]2CN2CCCC2)c2cc(-c3ccc(C#N)cc3)ccc2n1` [Compound 228], > 10 µM; as for `N#Cc1ccc(-c2ccc3nc(NCc4cccc(Cl)c4F)cc(C(=O)N4CCC[C@H]4CN4CCCC4)c3c2)cc1` [Compound 229], > 10 µM.
As for `N#Cc1ccc(-c2ccc3nc(NCc4cc(Cl)ccc4F)cc(C(=O)N4CCC[C@H]4CN4CCCC4)c3c2)cc1` [Compound 230], the figure is > 10 µM; as for `N#Cc1ccc(-c2ccc3nc(NCc4csc5ccccc45)cc(C(=O)N4CCC[C@H]4CN4CCCC4)c3c2)cc1` [Compound 231], > 10 µM; as for `N#Cc1ccc(-c2ccc3nc(NCc4ccccc4OC(F)F)cc(C(=O)N4CCC[C@H]4CN4CCCC4)c3c2)cc1` [Compound 232], > 10 µM.
For the compound `N#Cc1ccc(-c2ccc3nc(NCc4ccc(OC(F)F)cc4)cc(C(=O)N4CCC[C@H]4CN4CCCC4)c3c2)cc1` [Compound 233], the half-inhibitory concentration (IC50) is > 10 µM.
As to `N#Cc1ccc(-c2ccc3nc(NCc4ccc(-c5cccs5)cc4)cc(C(=O)N4CCC[C@H]4CN4CCCC4)c3c2)cc1` [Compound 234], the IC50 is > 10 µM.
For `N#Cc1ccc(-c2ccc3nc(NCc4ccccc4N4CCCCC4)cc(C(=O)N4CCC[C@H]4CN4CCCC4)c3c2)cc1` [Compound 235], the IC50 was > 10 µM.
Consider `N#Cc1ccc(-c2ccc3nc(NCc4ccccc4OC(F)(F)F)cc(C(=O)N4CCC[C@H]4CN4CCCC4)c3c2)cc1` [Compound 236], for which the IC50 is > 10 µM.
In the case of `N#Cc1ccc(-c2ccc3nc(NCc4cccc(C(F)(F)F)c4F)cc(C(=O)N4CCC[C@H]4CN4CCCC4)c3c2)cc1` [Compound 237], the IC50 was > 10 µM.
Take `N#Cc1ccc(-c2ccc3nc(NCc4cc(C(F)(F)F)ccc4F)cc(C(=O)N4CCC[C@H]4CN4CCCC4)c3c2)cc1` [Compound 238]: the IC50 is > 10 µM.
In the case of `N#Cc1ccc(-c2ccc3nc(NCc4ccc(F)cc4C(F)(F)F)cc(C(=O)N4CCC[C@H]4CN4CCCC4)c3c2)cc1` [Compound 239], the IC50 was > 10 µM.
Regarding `N#Cc1ccc(-c2ccc3nc(NCc4ccc(C(F)(F)F)cc4F)cc(C(=O)N4CCC[C@H]4CN4CCCC4)c3c2)cc1` [Compound 240], the IC50 was > 10 µM.
As for `N#Cc1ccc(-c2ccc3nc(NCc4cc(F)ccc4C(F)(F)F)cc(C(=O)N4CCC[C@H]4CN4CCCC4)c3c2)cc1` [Compound 241], the IC50 was > 10 µM.
Under `N#Cc1ccc(-c2ccc3nc(NCc4csc5ccc(Cl)cc45)cc(C(=O)N4CCC[C@H]4CN4CCCC4)c3c2)cc1` [Compound 242] stands > 10 µM; under `N#Cc1ccc(-c2ccc3nc(NCCc4ccc(Br)cc4)cc(C(=O)N4CCC[C@H]4CN4CCCC4)c3c2)cc1` [Compound 243], > 10 µM.
Turning to `CCN(Cc1ccc(C)cc1)c1cc(C(=O)N2CCC[C@H]2CN2CCCC2)c2cc(-c3ccc(C#N)cc3)ccc2n1` [Compound 244], the IC50 is > 10 µM.
For `N#Cc1ccc(-c2ccc3nc(N4Cc5ccccc5C[C@H]4CO)cc(C(=O)N4CCC[C@H]4CN4CCCC4)c3c2)cc1` [Compound 245], the IC50 is > 10 µM.
Turning to `CN(Cc1cccc2ccccc12)c1cc(C(=O)N2CCC[C@H]2CN2CCCC2)c2cc(-c3ccc(C#N)cc3)ccc2n1` [Compound 246], the IC50 is > 10 µM.
On to `N#Cc1ccc(-c2ccc3nc(N(CCCCO)Cc4ccccc4)cc(C(=O)N4CCC[C@H]4CN4CCCC4)c3c2)cc1` [Compound 247], for which the IC50 is > 10 µM.
As to `CN(Cc1ccc(Cl)c(Cl)c1)c1cc(C(=O)N2CCC[C@H]2CN2CCCC2)c2cc(-c3ccc(C#N)cc3)ccc2n1` [Compound 248], the IC50 was > 10 µM.
As to `N#Cc1ccc(-c2ccc3nc(NNCc4ccccc4)cc(C(=O)N4CCC[C@H]4CN4CCCC4)c3c2)cc1` [Compound 249], the IC50 is > 10 µM.
Take `N#Cc1ccc(-c2ccc3nc(NCc4ccc(F)cc4Cl)cc(C(=O)N4CCC[C@H]4CN4CCCC4)c3c2)cc1` [Compound 250]: the IC50 was > 10 µM.
For the compound `N#Cc1ccc(-c2ccc3nc(NCc4ccccc4-c4ccccc4)cc(C(=O)N4CCC[C@H]4CN4CCCC4)c3c2)cc1` [Compound 251], the IC50 is > 10 µM.
Take `N#Cc1ccc(-c2ccc3nc(NCc4ccc(-c5ccccc5)cc4)cc(C(=O)N4CCC[C@H]4CN4CCCC4)c3c2)cc1` [Compound 252]: the IC50 is > 10 µM.
Consider `N#Cc1ccc(-c2ccc3nc(N4CCCC4Cc4ccccc4)cc(C(=O)N4CCC[C@H]4CN4CCCC4)c3c2)cc1` (some centres unmarked) [Compound 253], for which the IC50 is > 10 µM.
For the compound `N#Cc1ccc(-c2ccc3nc(N4CCC(c5ccccc5)C4)cc(C(=O)N4CCC[C@H]4CN4CCCC4)c3c2)cc1` (some centres unmarked) [Compound 254], the IC50 is > 10 µM.
On to `N#Cc1ccc(-c2ccc3nc(N4CCOC(c5ccccc5)C4)cc(C(=O)N4CCC[C@H]4CN4CCCC4)c3c2)cc1` (some centres unmarked) [Compound 255], for which the IC50 was > 10 µM.
Regarding `N#Cc1ccc(-c2ccc3nc(N4CCSC(c5ccccc5)C4)cc(C(=O)N4CCC[C@H]4CN4CCCC4)c3c2)cc1` (some centres unmarked) [Compound 256], the IC50 was > 10 µM.
Under `N#Cc1ccc(-c2ccc3nc(N4CCCC4c4ccccc4)cc(C(=O)N4CCC[C@H]4CN4CCCC4)c3c2)cc1` (some centres unmarked) [Compound 257] stands > 10 µM; under `N#Cc1ccc(-c2ccc3nc(N4CCC[C@@H]4c4ccccc4Cl)cc(C(=O)N4CCC[C@H]4CN4CCCC4)c3c2)cc1` [Compound 258], > 10 µM.
For the compound `N#Cc1ccc(-c2ccc3nc(N4CCCC4c4ccc(Cl)cc4)cc(C(=O)N4CCC[C@H]4CN4CCCC4)c3c2)cc1` (some centres unmarked) [Compound 259], the IC50 is > 10 µM.
As for `N#Cc1ccc(-c2ccc3nc(NCC4(c5ccc(Cl)cc5)CC4)cc(C(=O)N4CCC[C@H]4CN4CCCC4)c3c2)cc1` [Compound 260], the figure is > 10 µM.
With `N#Cc1ccc(-c2ccc3nc(N4CCC(c5ccc(Cl)cc5)C4)cc(C(=O)N4CCC[C@H]4CN4CCCC4)c3c2)cc1` (some centres unmarked) [Compound 261], the IC50 was > 10 µM.
Regarding `N#Cc1ccc(-c2ccc3nc(N4CCC(c5ccccc5F)C4)cc(C(=O)N4CCC[C@H]4CN4CCCC4)c3c2)cc1` (some centres unmarked) [Compound 262], the IC50 was > 10 µM.
Under `N#Cc1ccc(-c2ccc3nc(N4CCC(c5cccc(F)c5)C4)cc(C(=O)N4CCC[C@H]4CN4CCCC4)c3c2)cc1` (some centres unmarked) [Compound 263] stands > 10 µM.
With `N#Cc1ccc(-c2ccc3nc(N4CCC(c5ccc(F)cc5)C4)cc(C(=O)N4CCC[C@H]4CN4CCCC4)c3c2)cc1` (some centres unmarked) [Compound 264], the IC50 was > 10 µM.
Under `N#Cc1ccc(-c2ccc3nc(N4CCCC(c5ccccc5)C4)cc(C(=O)N4CCC[C@H]4CN4CCCC4)c3c2)cc1` (some centres unmarked) [Compound 265] stands > 10 µM; under `N#Cc1ccc(-c2ccc3nc(N4CCCC(c5ccc(C(F)(F)F)cc5)C4)cc(C(=O)N4CCC[C@H]4CN4CCCC4)c3c2)cc1` (some centres unmarked) [Compound 266], > 10 µM.
Under `N#Cc1ccc(-c2ccc3nc(N4CCCC(c5ccccc5F)C4)cc(C(=O)N4CCC[C@H]4CN4CCCC4)c3c2)cc1` (some centres unmarked) [Compound 267] stands > 10 µM; under `N#Cc1ccc(-c2ccc3nc(N4CCCC(c5cccc(F)c5)C4)cc(C(=O)N4CCC[C@H]4CN4CCCC4)c3c2)cc1` (some centres unmarked) [Compound 268], > 10 µM.
Take `N#Cc1ccc(-c2ccc3nc(N4CCCC(c5cccc(C(F)(F)F)c5)C4)cc(C(=O)N4CCC[C@H]4CN4CCCC4)c3c2)cc1` (some centres unmarked) [Compound 269]: the IC50 was > 10 µM.
With `N#Cc1ccc(-c2ccc3nc(NCc4cccs4)cc(C(=O)N4CCC[C@H]4CN4CCCC4)c3c2)cc1` [Compound 270], the IC50 was > 10 µM.
Regarding `Cc1ccsc1CNc1cc(C(=O)N2CCC[C@H]2CN2CCCC2)c2cc(-c3ccc(C#N)cc3)ccc2n1` [Compound 271], the IC50 was > 10 µM.
Under `N#Cc1ccc(-c2ccc3nc(NCC4(c5cccs5)CC4)cc(C(=O)N4CCC[C@H]4CN4CCCC4)c3c2)cc1` [Compound 272] stands > 10 µM.
Consider `CN(CCc1cccs1)c1cc(C(=O)N2CCC[C@H]2CN2CCCC2)c2cc(-c3ccc(C#N)cc3)ccc2n1` [Compound 273], for which the IC50 is > 10 µM.
For `O=C(c1cc(CCc2ccccc2)nc(CCc2ccccc2)c1)N1CCC[C@H]1CN1CCCC1` [Compound 274], the IC50 is > 10 µM.
Turning to `CN(Cc1ccccc1)c1cc(C(=O)N2CCC[C@H]2CN2CCCC2)cc(-c2ccccc2)n1` [Compound 275], the IC50 was > 10 µM.
For `CN(Cc1ccccc1)c1cc(C(=O)N2CCC[C@H]2CN2CCCC2)cc(-c2ccc3c(c2)OCO3)n1` [Compound 276], the concentration for half-maximal inhibition (IC50) was > 10 µM.

The values are drawn from patent US20080119515A1, “Heterocyclic Kinase Inhibitors: Methods of Use and Synthesis” (priority 2003, published 2008).
